The source of these data is patent US20230002357A1, “7-PYRIMIDINE-2-YL-OXY-INDAZOLE DERIVATIVES AND THEIR USE AS HERBICIDES” (SYNGENTA CROP PROTECTION AG, priority 2019, published 2023).

Holding throughout (assay type): in vivo
Holding throughout (conditions): 250 g/ha, evaluated after 13 days

Assay [1] relates to Echinochloa crus-galli (ECHCG). The assay is described as follows: Post-emergence Test, glasshouse, ECHCG. The procedure: (§1) Seeds of a variety of test species are sown in standard soil in pots Amaranthus retoflexus (AMARE), Echinochloa crus-galli (ECHCG), Setaria faberi (SETFA)). After cultivation for one day (pre-emergence) or after 8 days cultivation (post-emergence) under controlled conditions in a glasshouse (at 24/16° C., day/night; 14 hours light; 65% humidity), the plants are sprayed with an aqueous spray solution derived from the formulation of the technical active ingredient in acetone/water (50:50) solution containing 0.5% Tween™ 20 (polyoxyethelyene sorbitan monolaurate, CAS RN 9005-64-5). Compounds are applied at 250 g/ha unless otherwise stated. The test plants are then grown in a glasshouse under controlled conditions in a glasshouse (at 24/16° C., day/night; 14 hours light; 65% humidity) and watered twice daily. After 13 days for pre- and post-emergence, the test is evaluated for the percentage damage caused to the plant. The biological activities are shown in the following table on a five-point scale (5=81-100%; 4=61-80%; 3=41-60%; 2=21-40%; 1=0-20%).

In assay [2] the test system is Setaria faberi (SETFA). The assay is described as follows: Pre-emergence Test, glasshouse, SETFA. As to the method: as §1
For assay [3], the system named is IPOHE. As to the kind of experiment: Pre-emergence Test, glasshouse, IPOHE. The procedure:
as §1

In assay [4] the test system is IPOHE. The assay is described as follows: Post-emergence Test, glasshouse, IPOHE. The procedure:
as §1

Assay [5] deals with Amaranthus retoflexus (AMARE). The assay is described as follows: Post-emergence Test, glasshouse, AMARE. The procedure:
as §1

Assay [6] has as its system Echinochloa crus-galli (ECHCG). As to the kind of experiment: Pre-emergence Test, glasshouse, ECHCG. The procedure:
as §1

The test system of assay [7] is Setaria faberi (SETFA). As to the kind of experiment: Post-emergence Test, glasshouse, SETFA. The procedure: as §1
Assay [8] deals with ABUTH. The assay is described as follows: Post-emergence Test, glasshouse, ABUTH. The procedure: as §1
For assay [9], the system named is ABUTH. The assay is described as follows: Pre-emergence Test, glasshouse, ABUTH. The procedure: as §1
Assay [10] has as its system Amaranthus retoflexus (AMARE). The assay is described as follows: Pre-emergence Test, glasshouse, AMARE. As to the method:
as §1

For the molecule `FC(F)(F)CCCn1ncc2c(Cl)cc(Cl)c(Oc3ncc(Cl)cn3)c21` [Compound 1.018], the “percentage damage caused to the plant, five-point scale, ECHCG” value (from here on “percentage damage caused … ECHCG”) in assay [1] and in assay [6] was 1 (1=0-20%) in each case. For the same molecule, the “percentage damage caused to the plant, five-point scale, SETFA” value (shortened to “percentage damage caused … SETFA”) with Setaria faberi (SETFA) [2] and in the assay on Setaria faberi (SETFA) [7] was 1 (1=0-20%) throughout. The “percentage damage caused to the plant, five-point scale, IPOHE” value (shortened to “percentage damage caused … IPOHE”) in the assay with IPOHE [3] and in the assay on IPOHE [4] was 1 (1=0-20%) each time. Also, in assay [5], the “percentage damage caused to the plant, five-point scale, AMARE” value (shortened to “percentage damage caused … AMARE”) is on record as 1 (1=0-20%). Further, the “percentage damage caused to the plant, five-point scale, ABUTH” value (shortened to “percentage damage caused … ABUTH”) in the assay on ABUTH [8] and in the assay on ABUTH [9] was 1 (1=0-20%) each time.
As to `FC(F)(F)CCCn1nnc2cccc(Oc3ncc(Cl)cn3)c21` [Compound 1.020, 7-(5-chloropyrimidin-2-yl)oxy-1-(4,4,4-trifluorobutyl) benzotriazole], the “percentage damage caused … SETFA” value in the assay with Setaria faberi (SETFA) [2] and in the assay on Setaria faberi (SETFA) [7] was 5 (5=81-100%) in each case. Moreover, the “percentage damage caused … IPOHE” value in the assay with IPOHE [3] and in the assay on IPOHE [4] was 2 (2=21-40%) each time. Moreover, the “percentage damage caused … AMARE” value in assay [5] is 2 (2=21-40%); in assay [10], 5 (5=81-100%). The “percentage damage caused … ABUTH” value in the assay on ABUTH [8] is on record as 3 (3=41-60%); in the assay with ABUTH [9], 4 (4=61-80%).
Turning to `Cc1nn(CCCC(F)(F)F)c2c(Oc3ncc(Cl)cn3)cccc12` [Compound 1.021, 7-(5-chloropyrimidin-2-yl)oxy-3-methyl-1-(4,4,4-trifluorobutyl)indazole], the “percentage damage caused … SETFA” value was 5 (5=81-100%) in the assay on Setaria faberi (SETFA) [2] and 4 (4=61-80%) in the assay with Setaria faberi (SETFA) [7]. The figures for the “percentage damage caused … IPOHE” value with IPOHE [3] and in the assay on IPOHE [4] were 2 (2=21-40%) and 3 (3=41-60%), respectively. For the same molecule, the figures for the “percentage damage caused … AMARE” value in assay [5] and in assay [10] were 1 (1=0-20%) and 5 (5=81-100%), respectively. Further, the “percentage damage caused … ABUTH” value in the assay on ABUTH [8] was 4 (4=61-80%); with ABUTH [9], 3 (3=41-60%).
Take `FC(F)(F)CCCn1nc(C(F)(F)F)c2cccc(Oc3ncc(Cl)cn3)c21` [Compound 1.022, 7-(5-chloropyrimidin-2-yl)oxy-1-(4,4,4-trifluorobutyl)-3-(trifluoromethyl)indazole]: the “percentage damage caused … SETFA” value with Setaria faberi (SETFA) [2] and in the assay with Setaria faberi (SETFA) [7] was 5 (5=81-100%) throughout. For the same molecule, the “percentage damage caused … IPOHE” value with IPOHE [3] and in the assay with IPOHE [4] was 4 (4=61-80%) each time. The “percentage damage caused … AMARE” value in assay [5] and in assay [10] was 5 (5=81-100%) each time. In addition, the “percentage damage caused … ECHCG” value in assay [6] is recorded as 5 (5=81-100%). Besides, the figures for the “percentage damage caused … ABUTH” value with ABUTH [8] and in the assay with ABUTH [9] were 5 (5=81-100%) and 4 (4=61-80%), respectively.
For the molecule `COc1cc(Oc2cccc3nnn(CCCC(F)(F)F)c23)ncn1` [Compound 1.023], the “percentage damage caused … SETFA” value in the assay on Setaria faberi (SETFA) [2] and in the assay with Setaria faberi (SETFA) [7] was 1 (1=0-20%) throughout. The “percentage damage caused … IPOHE” value in the assay with IPOHE [3] and in the assay with IPOHE [4] was 1 (1=0-20%) each time. Moreover, the “percentage damage caused … AMARE” value in assay [5] and in [10] was 1 (1=0-20%) in each case. In addition, the “percentage damage caused … ABUTH” value with ABUTH [8] and with ABUTH [9] was 1 (1=0-20%) each time.
Turning to `N#Cc1cc(Oc2ncc(Cl)cn2)c2c(cnn2CCCC(F)(F)F)c1` [Compound 1.024], the “percentage damage caused … SETFA” value in the assay with Setaria faberi (SETFA) [2] is 4 (4=61-80%); with Setaria faberi (SETFA) [7], 1 (1=0-20%). For the same molecule, the “percentage damage caused … IPOHE” value in the assay on IPOHE [3] and with IPOHE [4] was 1 (1=0-20%) throughout. The “percentage damage caused … AMARE” value in assay [5] is on record as 2 (2=21-40%); in [10], 4 (4=61-80%). The “percentage damage caused … ABUTH” value is 2 (2=21-40%) in the assay with ABUTH [8] and 1 (1=0-20%) with ABUTH [9].
Consider `FC(F)(F)CCCn1ncc2c(Br)ccc(Oc3ncc(Cl)cn3)c21` [Compound 1.025], for which the “percentage damage caused … SETFA” value in the assay on Setaria faberi (SETFA) [2] and with Setaria faberi (SETFA) [7] was 2 (2=21-40%) each time. For the same molecule, the “percentage damage caused … IPOHE” value with IPOHE [3] and with IPOHE [4] was 1 (1=0-20%) in each case. For the same molecule, the “percentage damage caused … AMARE” value in [5] is reported as 2 (2=21-40%); in assay [10], 1 (1=0-20%). Also, the entries for the “percentage damage caused … ABUTH” value in the assay on ABUTH [8] and with ABUTH [9] were 2 (2=21-40%) and 1 (1=0-20%), respectively.
In the case of `FC(F)(F)CCCn1nc(Cl)c2c(Cl)ccc(Oc3ncc(Cl)cn3)c21` [Compound 1.026], the results for the “percentage damage caused … SETFA” value in the assay on Setaria faberi (SETFA) [2] and with Setaria faberi (SETFA) [7] were 3 (3=41-60%) and 5 (5=81-100%), respectively. The “percentage damage caused … IPOHE” value is 1 (1=0-20%) with IPOHE [3] and 2 (2=21-40%) with IPOHE [4]. Besides, the “percentage damage caused … AMARE” value in assay [5] and in [10] was 5 (5=81-100%) in each case. The “percentage damage caused … ECHCG” value in [6] was 5 (5=81-100%). Besides, the “percentage damage caused … ABUTH” value in the assay on ABUTH [8] was 4 (4=61-80%); in the assay with ABUTH [9], 2 (2=21-40%).
For `FC(F)(F)CCCn1nc(Cl)c2c(Cl)cc(Cl)c(Oc3ncc(Cl)cn3)c21` [Compound 1.027], the “percentage damage caused … ECHCG” value in [1] is listed as 4 (4=61-80%). Also, the “percentage damage caused … SETFA” value is given as 1 (1=0-20%) in the assay with Setaria faberi (SETFA) [2] and 3 (3=41-60%) in the assay with Setaria faberi (SETFA) [7]. For the same molecule, the “percentage damage caused … IPOHE” value in the assay on IPOHE [3] and in the assay on IPOHE [4] was 1 (1=0-20%) in each case. The “percentage damage caused … AMARE” value in [5] and in [10] was 4 (4=61-80%) each time. Further, the “percentage damage caused … ABUTH” value is listed as 2 (2=21-40%) in the assay on ABUTH [8] and 1 (1=0-20%) with ABUTH [9].
`FC(F)(F)CCCn1nc(Cl)c2c(Br)ccc(Oc3ncc(Cl)cn3)c21` [Compound 1.028]: the “percentage damage caused … SETFA” value with Setaria faberi (SETFA) [2] is reported as 2 (2=21-40%); with Setaria faberi (SETFA) [7], 3 (3=41-60%). Also, the “percentage damage caused … IPOHE” value with IPOHE [3] and with IPOHE [4] was 1 (1=0-20%) each time. In addition, the “percentage damage caused … AMARE” value in assay [5] is given as 5 (5=81-100%); in assay [10] it was 4 (4=61-80%). Besides, the “percentage damage caused … ABUTH” value in the assay with ABUTH [8] is 2 (2=21-40%); with ABUTH [9], 1 (1=0-20%).
As to `N#Cc1ccc(Oc2ncc(Cl)cn2)c2c1c(Cl)nn2CCCC(F)(F)F` [Compound 1.029], the “percentage damage caused … SETFA” value with Setaria faberi (SETFA) [2] and in the assay on Setaria faberi (SETFA) [7] was 1 (1=0-20%) throughout. For the same molecule, the “percentage damage caused … IPOHE” value in the assay with IPOHE [3] and in the assay on IPOHE [4] was 1 (1=0-20%) throughout. In addition, the “percentage damage caused … AMARE” value is 4 (4=61-80%) in [5] and 2 (2=21-40%) in assay [10]. The “percentage damage caused … ABUTH” value with ABUTH [8] and with ABUTH [9] was 1 (1=0-20%) in each case.
In the case of `N#Cc1cc(Oc2ncc(Cl)cn2)c2c(c1)c(Cl)nn2CCCC(F)(F)F` [Compound 1.030], in assay [1], the “percentage damage caused … ECHCG” value is 2 (2=21-40%). Also, the “percentage damage caused … SETFA” value with Setaria faberi (SETFA) [2] was 1 (1=0-20%); in the assay with Setaria faberi (SETFA) [7], 2 (2=21-40%). Besides, the “percentage damage caused … IPOHE” value in the assay with IPOHE [3] and in the assay with IPOHE [4] was 1 (1=0-20%) each time. Moreover, the figures for the “percentage damage caused … AMARE” value in [5] and in assay [10] were 4 (4=61-80%) and 1 (1=0-20%), respectively. Further, the “percentage damage caused … ABUTH” value in the assay with ABUTH [8] and in the assay with ABUTH [9] was 1 (1=0-20%) each time.
